Reference: patent US20250197368A1 (priority 2020, published 2025)

Key:
[1] = molecular target: human α3β3γ2 GABAARs (benzodiazepine site) (Homo sapiens (Human), UniProt P18507+P34903); assay: In vitro radioligand binding assay ([3H]Ro15-1788 displacement), α3-GABAAR Ki; conditions: L(tk-) cell membranes, 4 nM [3H]Ro15-1788
Outline: (§1)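 Ki derived via Cheng-Prusoff from IC50 for displacement of 4 nM [3H]Ro15-1788 (Kd from saturation binding), with 1-3 μM TP003 defining nonspecific binding. Incubation lasted 1 h at 4° C on membranes of induced L(tk−) cells stably transfected with the human subunits; detection by filtration and scintillation counting.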

[2] = molecular target: human α2β3γ2 GABAARs (benzodiazepine site) (Homo sapiens (Human), UniProt P18507+P47869); assay: In vitro radioligand binding assay ([3H]Ro15-1788 displacement), α2-GABAAR Ki
Sequence of human α2β3γ2 GABAARs (benzodiazepine site) (P47869 29-451): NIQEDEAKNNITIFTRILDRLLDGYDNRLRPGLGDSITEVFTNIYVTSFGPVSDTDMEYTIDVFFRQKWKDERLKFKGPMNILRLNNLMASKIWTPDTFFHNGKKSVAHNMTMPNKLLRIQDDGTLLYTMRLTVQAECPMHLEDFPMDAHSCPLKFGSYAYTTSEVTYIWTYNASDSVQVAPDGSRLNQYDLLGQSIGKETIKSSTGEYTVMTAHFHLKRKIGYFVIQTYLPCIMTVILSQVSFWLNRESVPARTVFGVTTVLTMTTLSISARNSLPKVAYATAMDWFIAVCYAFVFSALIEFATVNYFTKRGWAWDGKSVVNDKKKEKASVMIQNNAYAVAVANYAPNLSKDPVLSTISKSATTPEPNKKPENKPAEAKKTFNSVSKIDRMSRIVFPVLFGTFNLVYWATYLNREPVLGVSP
Sequence of human α2β3γ2 GABAARs (benzodiazepine site) (P28472 26-473 partner): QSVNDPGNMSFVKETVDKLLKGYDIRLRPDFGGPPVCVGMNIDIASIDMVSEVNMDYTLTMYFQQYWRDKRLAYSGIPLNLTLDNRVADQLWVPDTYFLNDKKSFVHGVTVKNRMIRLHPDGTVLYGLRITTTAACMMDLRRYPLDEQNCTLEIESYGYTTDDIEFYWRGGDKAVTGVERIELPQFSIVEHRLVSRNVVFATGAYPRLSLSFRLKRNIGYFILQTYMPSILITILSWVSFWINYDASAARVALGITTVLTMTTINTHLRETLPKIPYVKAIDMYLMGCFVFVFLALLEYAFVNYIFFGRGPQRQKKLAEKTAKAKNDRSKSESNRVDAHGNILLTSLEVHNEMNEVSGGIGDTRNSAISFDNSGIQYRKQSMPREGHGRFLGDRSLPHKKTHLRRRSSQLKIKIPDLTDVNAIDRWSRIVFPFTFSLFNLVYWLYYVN
Sequence of human α2β3γ2 GABAARs (benzodiazepine site) (P18507 40-475): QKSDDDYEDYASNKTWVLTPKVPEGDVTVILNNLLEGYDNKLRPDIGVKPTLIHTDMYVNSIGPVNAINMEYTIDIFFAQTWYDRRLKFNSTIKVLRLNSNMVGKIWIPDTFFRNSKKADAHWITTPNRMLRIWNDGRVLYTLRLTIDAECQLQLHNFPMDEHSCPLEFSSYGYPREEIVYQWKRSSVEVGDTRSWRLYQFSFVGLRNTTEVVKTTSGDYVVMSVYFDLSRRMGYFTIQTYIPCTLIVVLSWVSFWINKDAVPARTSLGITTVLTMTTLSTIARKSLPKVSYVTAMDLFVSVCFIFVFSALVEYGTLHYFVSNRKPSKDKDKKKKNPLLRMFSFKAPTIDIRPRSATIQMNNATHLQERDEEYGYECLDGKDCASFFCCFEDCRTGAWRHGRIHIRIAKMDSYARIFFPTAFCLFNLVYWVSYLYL
Outline: as §1

[3] = tested on: human α3β3γ2 GABAARs; assay: In vitro electrophysiological recording assay (automated patch-clamp), α3-GABAAR relative efficacy; format: cell-based; conditions: % efficacy normalised to diazepam; GABA EC10-20; concentration generally >= 100 times Ki
Description: The efficacy of modulators was evaluated using the automated patch-clamp platforms QPatch16 (Sophion, Copenhagen, Denmark) or SyncroPatch 384PE (Nanion, Germany).
For QPatch electrophysiology testing L(tk^−) cells stably expressing human α1β3γ2, α2β3γ2, α3β3γ2, α5β3γ2 GABAARs were used. HEK293 cells stably expressing human α1β3γ2L, α2β3γ2L, α3β3γ2L and α5β3γ2L GABAARs were used for the SyncroPatch 384PE experiments.
All experiments were carried out at room temperature (20-22° C.) using a standard whole cell procedure and physiological solutions. Gigaseals were formed upon execution of a combined suction/voltage protocol with subsequent increased suction leading to the whole-cell configuration.
The currents recorded were acquired at either 1 KHz or 2 KHz and filtered using a Bessel filter. Whole-cell currents were measured at a holding potential of-65 mV (QPatch) or −80 mV (SyncroPatch).
For QPatch experiments, the extracellular solution contained of: 145 mM NaCl, 4 mM KCl, 1 mM MgCl2, 2 mM CaCl2), 10 mM HEPES, 10 mM D-glucose (pH 7.4), and the intracellular solution consisted of: 96 mM KCl, 28 mM CsCl, 25 mM KOH, 4.3 mM CaCl2), 1.4 mM MgCl2, 10 mM EGTA, 10 mM HEPES, 3 mM MgATP (pH 7.2). The osmolarities of the extracellular and intracellular solutions were 305 and 295 mOsm respectively.
For SyncroPatch experiments, the extracellular recording solution contained: 140 mM NaCl, 4 mM KCl, 2 mM CaCl2), 1 mM MgCl2, 10 mM HEPES, 5 mM glucose (pH 7.4 with NaOH and osmolarity of c. 300-310 mOsm). The intracellular recording solution consisted of: 90 mM KCl, 50 mM KF, 1.5 mM MgCl2, 11.1 mM EGTA and 10 mM HEPES (pH 7.2 with KOH and osmolarity of c. 300 mOsm). 2 mM of NaATP was added to the intracellular solution on the day of testing.
The effects of modulators were evaluated in the presence of a submaximal GABA concentration, giving typically less than 30% activation of the response elicited by a saturating GABA concentration. To check and ensure baseline current stability before compound addition, two to five consecutive applications of GABA EC10-20 separated by wash steps were performed before compound addition. The test compound was applied 1 min at least prior to co-application with GABA EC10-20. Following a further wash step, a saturating concentration of GABA was applied at the end of each recording, allowing the accurate evaluation for each cell of the percentage baseline activation elicited by the submaximal GABA applied.
The compounds were first dissolved in DMSO as a 10 mM stock and then further diluted to the testing concentrations so that the final DMSO concentration in the extracellular recording solution was 0.1% (QPatch) or 0.2% (SyncroPatch).
The % efficacy of modulators was determined from the GABA elicited currents recorded in the presence and absence of the test compound, using the formula:
[((compound peak current−leak)−(GABA peak current-leak))/(GABA peak current−leak)]*100,
where ‘leak’ is the leak baseline current at the holding potential, ‘compound peak current’ is the current elicited by co-application of compound and GABA, and ‘GABA peak current’ is the current elicited by GABA alone at the last GABA application before compound addition. The results were presented as ‘relative efficacy’ for each compound generally at a concentration equal or higher than 100 times their determined Ki. The relative efficacy of a compound was calculated by normalising its % efficacy to the corresponding % efficacy of diazepam that was separately determined.

[4] = tested on: human α2β3γ2 GABAARs; assay: In vitro electrophysiological recording assay (automated patch-clamp), α2-GABAAR relative efficacy; format: cell-based; conditions: % efficacy normalised to diazepam; GABA EC10-20; concentration generally >= 100 times Ki
Outline: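 Relative efficacy is % enhancement of the leak-subtracted GABA EC10-20 peak current, divided by the separately measured diazepam value; compound generally tested at ≥100× Ki after ≥1 min pre-application. Recordings at room temperature, human receptors stably expressed in L(tk^−) (QPatch, −65 mV) or HEK293 (SyncroPatch, −80 mV) cells.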

For `CCCNC(=O)c1c(N)c2cccc(-c3cc(CN4CCC5(CCN(C)CC5)C4)ccc3F)c2[nH]c1=O` [Example 143, 4-Amino-8-(2-fluoro-5-((8-methyl-2,8-diazaspiro[4.5]decan-2-yl)methyl)phenyl)-2-oxo-N-propyl-1,2-dihydroquinoline-3-carboxamide], the Ki [1] was 10.1 nM, the Ki [2] was 1.8 nM and the “α3-GABAAR Relative Efficacy (vs. Diazepam)” value [3] was 0.11. The “α2-GABAAR Relative Efficacy (vs. Diazepam)” value [4] was 0.32.
